This is an account of results in patent US20240299379A1, “COMPOSITIONS OF CLOFAZIMINE AND AMIKACIN FOR PULMONARY ADMINISTRATION IN THE TREATMENT OF RESPIRATORY DISEASES” (BOARD OF REGENTS, THE UNIVERSITY OF TEXAS SYSTEM, priority 2021, published 2024).

The nature of data set [1]: Geometric particle size distribution by laser diffraction (Sympatec HELOS, RODOS dry dispersion). Format: physicochemical. The note with it: micronized with Model 00 Jet-O-Mizer Air Jet Mill. The method, then: PSD was calculated using Fraunhofer theory using the Sympatec laser diffractor. […] Measurements were taken every 5 msec […] following powder dispersion. Measurements that were between 5-25% optical density were averaged to determine particle size distribution. Data was analyzed using HELOS software version 5.6.0.0 with an HRLD model to convert the scattering pattern to a particle size distribution.

Data set [2] is described as follows: Solubility of the drug substances in solvents. The class given is physicochemical. The following applies: ethanol and isopropanol, organic solvent or mixture.
The conditions of data set [3]: cited from earlier work.
The conditions of data set [4]: in vivo, po; cited from earlier work.
The conditions of data set [5]: in vivo, po; cited from earlier work. The source holds these as a separate data set.

In data set [1], `CC(C)N=c1cc2n(-c3ccc(Cl)cc3)c3ccccc3nc-2cc1Nc1ccc(Cl)cc1` [clofazimine, N,5-bis(4-chlorophenyl)-3-(1-methylethylimino)-5H-phenazin-2-amine] registered an X50 particle diameter of 2.39 μm and an X90 particle diameter of 5.29 μm. Further, the solubility in data set [2] is no more than 800 µg/mL. Also, in data set [3] (Merck Index), the “Solubility in DMF and benzene” value is given as “soluble”; the “Solubility in acetone and ethyl acetate” value is on record as “sparingly soluble”; the Solubility in chloroform is on record as 15 parts; the Solubility in ethanol is reported as 700 parts. Also, the Solubility in ether in data set [3] (Merck Index) is 1000 parts. Moreover, the “Solution concentration that can be formed in methanol” value in data set [3] (Sabnis et al., 2015) was 0.1%. In addition, the Solubility in water result in data set [3] is recorded as “practically insoluble”. Besides, in data set [4], the “Patient population reporting at least one adverse drug effect” value is 47.5%. Besides, in data set [5], the “Duration of administration necessary to reach steady-state concentrations” value is listed as “At least 30 days”.
